How the values were obtained:
[1] = biological target: T1, Corynebacterium sp. 2,5-DKG reductase A mutant Q192R (arginine for glutamine at position 192) (Corynebacterium sp., UniProt P06632, Q192R); assay: Kinetic characterization of purified mutant Q192R 2,5-DKG reductase A (NADPH oxidation at 340 nm); assay type: biochemical; details: 50 mM tris, pH 7.0, 0.2 mM NADPH, 25° C.
T1 construct: made in house; host or cells: Acetobacter cerinus
Description: (§1) The preparations of wild-type and mutant Q192R 2,5-DKG reductase A enzymes were characterized kinetically as to their ability to reduce the substrate 2,5-DKG to 2-KLG. Assays were done in 1 ml total volume of 50 mM tris, pH 7.0, containing 0.2 mM NADPH, a constant amount of enzyme ([…]) and amounts of substrate varying from 2 to 14 mM. The assays were done at 25° C., and the rate of substrate reduction was measured spectrophotometrically by measuring the loss of absorbance at 340 nm wavelength (which is indicative of the oxidation of the cofactor NADPH to NADP+).
(§2) The data were analyzed according to the well-known Michaelis equation to determine the kinetic parameters Vmax and Km using the Enzfit software package (Biosoft, Cambridge, UK) on a Epson desktop computer.

[2] = biological target: T2, Corynebacterium sp. (ATCC 31090) 2,5-DKG reductase A, wild type, SEQ ID NO:1 (Corynebacterium sp., UniProt P06632); assay: Kinetic characterization of purified wild-type 2,5-DKG reductase A (NADPH oxidation at 340 nm); assay type: biochemical; details: wild-type enzyme, 50 mM tris, pH 7.0, 0.2 mM NADPH, 25° C.
T2 construct: made in house; host or cells: Acetobacter cerinus
T2 sequence (P06632 whole entry): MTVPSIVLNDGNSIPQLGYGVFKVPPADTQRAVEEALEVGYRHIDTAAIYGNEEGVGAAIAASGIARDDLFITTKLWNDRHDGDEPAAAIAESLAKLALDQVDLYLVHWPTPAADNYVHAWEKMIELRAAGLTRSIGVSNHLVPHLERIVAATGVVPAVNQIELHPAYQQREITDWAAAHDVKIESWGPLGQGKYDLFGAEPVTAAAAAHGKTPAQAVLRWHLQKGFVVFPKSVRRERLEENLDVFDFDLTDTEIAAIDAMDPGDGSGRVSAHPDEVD
Description: as §1, §2

T1 sequence (P06632 whole entry Q192R): as the sequence (P06632 whole entry) above, with Q192R counted along it

O=C(O)C(=O)[C@@H](O)[C@H](O)C(=O)CO [2,5-DKG, 2,5-diketo-D-gluconic acid]
specificity constant (kcat/Km) [1]: 335 M⁻¹ s⁻¹
Km ([1]; substrate 2 to 14 mM): 21 mM
Vmax for the 2,5-DKG substrate ([1]; substrate 2 to 14 mM): 14.0 μmoles per minute per milligram of protein
specificity constant (kcat/Km) [2]: 140 M⁻¹ s⁻¹
Vmax for the 2,5-DKG substrate ([2]; substrate 2 to 14 mM): 7.8 μmoles per minute per milligram of protein
Km ([2]; substrate 2 to 14 mM, read-out: Km or Michaelis constant): 28 mM
